Experimental data reported in patent US9457044B2, “Methods and compositions for wound healing” (CoDa Therapeutics, Inc., priority 2006, dated 2016).

What was measured:
Cx43 mRNA = assay: Real-Time PCR of Cx43 mRNA at skin wound sites; type: in vivo, mice
Protocol: (§1) Male, 8 week old, ICR mice were used in the following experiments. All the mice were kept under specific pathogen-free conditions in an environmentally controlled clean room at University College London and all the experiments were carried out under UK Home Office regulations. Mice were anaesthetized by halothane inhalation. Four full-thickness excisional wounds of 6 mm diameter were made on the shaved back on either side of the dorsal midline with a 6 mm biopsy punch (Kai Industries). To each pair of wounds a single topical application of 50 μl of 1 μM Cx43 as ODN (SEQ. ID No. 2) (Sigma-Genosys) in 30% Pluronic F-127 gel (Sigma-Aldrich), chilled on ice, was made to one wound, and an identical application of 1 μM sense control sODNs was made to the other. […] R. and Becker, D. L. (2003). Targeting connexin 43 expression accelerates the rate of wound repair. Curr Biol 13, 1697-703). Each wound region was digitally photographed at the indicated time intervals, and the areas of the wounds were calculated. All wound areas were expressed as percentages of the initial wound areas. In some series of experiments, wounds and their surrounding area, including the scab and epithelial margins, were harvested with an 8 mm biopsy punch (Kai Industries) at the indicated time intervals after mice were killed with an overdose of chloroform. A minimum of eight mice were used for each time point examined.
Total RNA was extracted from skin wound samples using TRIzol Reagent (Invitrogen), according to the manufacturer's instructions. Ten micrograms of total RNA was reverse-transcribed into cDNA using the SuperScript First-Strand Synthesis System for RT-PCR (Invitrogen).
Gene specific primers and probe were obtained as TaqMan® Gene Expression Assays (Applied Biosystems) for Cx43, Ccl2, Co1α1, TNFα and TGFβ1. The enzyme and buffer system was purchased as TaqMan® Universal PCR Master Mix (Applied Biosystems). Each sample was analyzed in duplicate. Amplification and real-time detection was performed in the DNA Engine Opticon®2 (MJ Research Inc.). […]

collagen type 1α1 = assay: Real-Time PCR of Col1α1 at wound sites; design: species or system mice; details: mouse, in vivo
Protocol: as §1, with “In some series of experiments, wounds and their surrounding area, including the scab and epithelial margins, were harvested with an 8 mm biopsy punch (Kai Industries) at the indicated time intervals after mice were killed with an overdose of chloroform. A minimum of eight mice were used for each time point examined.” left out
Gene specific primers and probe were obtained as TaqMan® Gene Expression Assays (Applied Biosystems) for Cx43, Ccl2, Co1α1, TNFα and TGFβ1. […] Each sample was analyzed in duplicate. […]

IGF-7 = assay: Growth factor/cytokine antibody array of chimera: IGF-7; type: cell-based, human; details: after two weeks in culture
Protocol: Cell denuded pig stroma chimeras were cultured for two weeks and then assessed using a growth factor/cytokine antibody array (measures protein levels of 120 different growth factors/cytokines.
After two weeks in culture the chimeras were cut in half: one half for histological analysis, and the other for growth factor and cytokine array analysis. For growth factor and cytokine analysis the central stromal region (with fully recovered human cell epithelium) and partially repopulated stroma (human keratocytes) was removed and homogenised separately from the human limbal rim which contains stem cell populations. The homogenates were run on a growth factor/cytokine array (FIG. 15) and analysis of growth factor levels performed using densitometry analysis of the array membranes.

myofibroblasts = assay: Anti-α smooth muscle actin staining of myofibroblasts in granulation tissue; type: in vivo, mice
Protocol: as §1
Immunostaining for connexin 43, blood vessels or a smooth muscle actin was carried out on cryostat sections of wounds. Sections were fixed in acetone at 4° C. for 5 minutes prior to blocking for 45 minutes. Incubation in primary antibody was for one hour at the following dilutions: rabbit anti-Cx43 (Sigma) 1:3,000; isoLectin B_FITC 1:2000; von Willebrand Factor (rabbit Dako) 1:400; anti-α smooth muscle actin (Sigma) 1:400 at room temperature. […]
A treatment-blinded observer counted MPO-positive neutrophils and F4/80-positive macrophages in the wound bed (defined as the area surrounded by unwounded skin, fascia, regenerated epidermis, and eschar) in 3 random high-power fields of 0.332 mm^2. BrdU-positive cells in the wound margin and the nascent epidermis regions of each immunohistochemically stained section were counted as described previously and expressed per […] of epidermis (Mori, R., Kondo, T., Nishie, T., Ohshima, T. and Asano, M. (2004). Impairment of skin wound healing in beta-1,4-galactosyltransferase-deficient mice with reduced leukocyte recruitment. Am J Pathol 164, 1303-14). Number of fibroblast like cells (phalloidin-positive cells with spindle-shape body) at the wound margin were counted in high-power fields also (each field was 0.332 mm^2). […] Images were made binary at a standard threshold and positive pixels were counted using Image J (NIH Image).

TGF-β1 = assay: Immunostaining for TGF-β1 at wound sites; type: in vivo, mice; details: 2 days
Protocol: as §1, with “examined. […]” for “examined.”

GTAATTGCGGCAGGAGGAATTGTTTCTGTC (antisense GTAATTGCGGCAGGAGGAATTGTTTCTGTC; in Pluronic F-127 gel, further chemistry not given here) [Cx43 asODN]
expression of Cx43 mRNA relative to GAPDH (Cx43 mRNA; 7 days after the injury): 4.6 units | reduction of Cx43 mRNA versus control sODN-treated wounds (Cx43 mRNA; one day after injury, P<0.05): 37% | expression of Cx43 mRNA relative to GAPDH (Cx43 mRNA; one day after injury, single topical 50 μl of 1 μM in 30% Pluronic F-127 gel): 2.95 units | collagen type 1α1 in treated wounds (collagen type 1α1): increased | level of IGF-7 in chimeric stroma compared with untreated controls (IGF-7): very high levels | SMA staining at the edges of the granulation tissue (myofibroblasts; 10 days after wounding, P=0.000002 versus control): most of the staining for SMA had gone | SMA staining (myofibroblasts; day 5, no staining in control wounds): could be detected at the edges of the granulation tissue | SMA staining at the edges of the granulation tissue, quantified (myofibroblasts; day 7, P=0.004 versus control): significantly higher | advance over controls in maturation of granulation tissue (myofibroblasts; mouse, in vivo): 2 to 3 days | TGF-β1 positive elongated fibroblast-like cells at the dermal margins of the wound (TGF-β1): an additional TGF-β1 positive cell type could be seen in large numbers | TGF-β1 staining in the epidermis versus control wound epidermis (TGF-β1): much more strongly
